Experiments:
[1] = system: Escherichia coli MG1655 wildtype cells; experiment: Carboxin inhibitor experiments (CFU survival, alone and combined with H2O2 or ampicillin; dose response and synergy); assay type: cell-based
Experimental: Strains were grown aerobically from an initial inoculation of OD600=0.01 to OD600=0.16-0.20 in 250 mL baffled flasks filled to 1/10th the total volume and shaken at 300 rpm at 37° C. Time-zero samples were collected (200-400 μL), then 1 mL aliquots were transferred to 14 mL test tubes. Carboxin solubilized in 100% ethanol or ethanol alone was added to the tubes. […] Drug synergism was calculated using the Bliss Independence and Highest Single Agent models^52, 53. Specifically, the formula,
was used to calculate synergism with the Bliss Independence model. A and B are the effects of the two drugs in isolation, whereas, BICAB is the combined effect of the two drugs as predicted by the Bliss Independence model. If CAB, the experimentally-determined combined effect of the two drugs, is >BICAB, synergy is observed. In contrast, in the Highest Single Agent model, if CAB>max(A, B) synergy is observed. Since cell death was monitored, the quantitative effect of each compound was defined as the fractional reduction of the population, R=1−CFUt/CFU0, where CFUt is the number of CFUs measured after treatment, and CFU0 is the number of CFUs measured before treatment. R=1 indicates complete loss of the population, R=0 indicates a population in stasis, and R<0 indicates a growing population. […] The Bliss Independence model can be written as follows,
If A is a compound that reduces CFUs, such as ampicillin, its effect above the MIC will be 0≦A≦1, whereas if B is a compound that allows growth at all concentrations, its effect will be B<0 regardless of the concentration. Rearrangement of the above yields,
Since equation 3 yields BICAB/A<1 for all B<0 and 0<A<1, the Highest Single Agent model requires CAB/A>1 and the Bliss Independence model requires CAB/BICAB>1 for synergy, the Highest Single Agent model will always be a more strict synergy requirement under these conditions. […] Modeling Escherichia coli ROS Metabolism

[2] = system: Escherichia coli MG1655 wildtype and single-gene deletion strains; experiment: Antimicrobial sensitivity assays (CFU time course of deletion strains and wildtype treated with oxidants or antibiotics); assay type: cell-based; conditions: 500 ng/mL gentamicin, FIG. 6C
Experimental: Escherichia coli MG1655 was used in this study. Genetic deletions of aceA, appB, atpC, cyoA, edd, fumB, fbaB, gdhA, gltB, gnd, mqo, nuoG, pfkB, pta, pykA, rpiB, sdhC, sucC, talB, tktB and zwf were transduced from the Keio single-gene deletion knockout library^63 into MG1655 using the P1 phage method, and confirmed with PCR. The media used for all experiments was M9 minimal media with 10 mM glucose as the sole carbon source or MOPS minimal media with 10 mM glucose (for the HyPer protein experiments).
Strains were grown aerobically from an initial inoculation of OD600=0.01 to OD600=0.16-0.20 in 250 mL baffled flasks filled to 1/10th the total volume and shaken at 300 rpm at 37° C. For menadione, H2O2, and ampicillin sensitivity assays, time-zero samples were collected (200-400 μL), then 1 mL aliquots were transferred to 14 mL test tubes, and appropriate volumes of menadione, H2O2, or ampicillin stock solutions, not in excess of 15 μL, were added to obtain the final concentrations (1 mM menadione, 5 mM H2O2, 7.5 μg/mL ampicillin, 100 ng/mL ofloxacin, 15 ng/mL ciprofloxacin, 500 ng/mL gentamicin, 10 μg/mL tetracycline, and 15 μg/mL chloramphenicol). […] Colony forming units were counted approximately 16-18 hours after plating.

[3] = cited from earlier work

## CC1(C)S[C@@H]2[C@H](NC(=O)[C@H](N)c3ccccc3)C(=O)N2[C@H]1C(=O)O [ampicillin]
[1]; carboxin 250 μM or greater, Bliss Independence and Highest Single Agent models, FIG. 8
  ampicillin concentrations synergistic with carboxin: 7.5 to 10 µg/mL

## gentamicin
[2]; many predicted target deletion strains
  sensitivity of many target strains compared to wildtype: decreased sensitivity
[2]; ΔatpC E. coli
  sensitivity of ΔatpC strain compared to wildtype: increased sensitivity

## CC1=C(C(=O)Nc2ccccc2)SCCO1 [carboxin]
[1]; 500 μM carboxin + 10 μg/mL ampicillin, FIG. 4F
  sensitivity of wildtype cells to ampicillin with carboxin compared to ampicillin alone: significantly more sensitive
[1]; 500 μM carboxin + 5 mM H2O2, FIG. 4E
  sensitivity of wildtype cells to H2O2 with carboxin compared to H2O2 alone: increased sensitivity
[1]; carboxin alone, 500 μM, wildtype E. coli, FIGS. 4E, 4F
  effect of carboxin alone on growth of wildtype cells: no effect on the growth
[1]; concentrations as high as 1 mM
  lethality / growth of E. coli with carboxin: non-lethal and allowed significant growth
[3]
  suitability as antibiotic adjuvant, human toxicity: not suitable as an antibiotic adjuvant due to human toxicity issues
